Experimental data from patent US20250041298A1, “CDK4 INHIBITOR FOR THE TREATMENT OF CANCER” (Pfizer Inc., priority 2021, published 2025).
Several values for one entry are separate records, joined by “and”; a condition that tells them apart may be missing. Equal values may be shown once. Read-outs that look alike come from different tables or passages of the source.

Key:
[1] = Phase 1/1b clinical trial: plasma pharmacokinetics of PF-07220060; assay type: in vivo, human; conditions: human, plasma; for Cmax / Tmax / AUC / half-life: po; for half-life: arithmetic mean
Experimental: Oral PF-07220060 was administered with at least 8 oz (240 mL) of water on an empty stomach (except during the food effect evaluation on Day-7 in Part 1D). No food or liquids other than water was consumed for 2 hours before and 1 hour following each dose throughout the study for BID dosing. No food or liquids other than water was consumed for 2 hours before and 2 hours after each dose throughout the study for QD dosing.
In the ongoing Phase 1/1b Study, as of Aug. 30, 2022, preliminary PK data for PF-07220060 as monotherapy (Part 1A) and in combination with endocrine therapy (Part 1B and Part 1C) was available from 60 participants with advanced solid tumors. PF-07220060 was administered orally as a single agent at doses ranging from 100 to 500 mg BID, and in combination with either letrozole or fulvestrant at 300 to 400 mg BID. Available plasma concentration-time data of PF-07220060 were analyzed using noncompartmental methods.
Preliminary noncompartmental PK analysis was conducted based on available samples collected from participants in the Study. […] Table 4 presents the summary of PK parameters for PF-07220060 as monotherapy, and in combination with letrozole or fulvestrant.

[2] = test system: HR+, HER2+ BT474 breast cancer spheroids; assay: Multicellular tumor spheroid growth inhibition (SGI), BT474; assay type: cell-based, human
Experimental: The purpose of this example was to evaluate the combination effect of PF-07220060 and endocrine therapy in multicellular tumor spheroid growth inhibition (SGI). To model the characteristics and cellular behavior of human tumors, the activity of PF-07220060 was evaluated in three dimensional MCTS models of HR+ breast cancer and AR+ prostate cancer following PF-07220060 treatment as a single agent and in combination with fulvestrant • 1) in HR+, HER2-T47D breast cancer spheroids. • 2) in HR+, HER2+BT474 breast cancer spheroids, • 3) in BT474 spheroids, and • 4) in AR+ prostate carcinoma cell line (LNCaP) prostate cancer spheroids. Spheroids were treated with increasing concentrations of 100, 300, or 1000 nM PF-07220060 and compared to palbociclib at the clinically relevant concentration of 30 nM. Single agent PF-07220060 inhibited spheroid growth in a dose-dependent manner, with highest efficacy (86% SGI over the duration of treatment with 1000 nM) shown in the T47D BC spheroid model (Table 1). Combining 100 nM PF-07220060 with 1 nM fulvestrant in T47D cells increased SGI to 96% compared to either single agent alone (57 to 67% SGI with 100 nM PF-07220060 or 79% SGI with fulvestrant) (Table 1). BT474 spheroids were relatively less sensitive to PF-07220060 resulting in 52% SGI at 1000 nM.

[3] = test system: AR+ prostate carcinoma cell line (LNCaP) prostate cancer spheroids; assay: Multicellular tumor spheroid growth inhibition (SGI), LNCaP; assay type: cell-based, human
Experimental: The purpose of this example was to evaluate the combination effect of PF-07220060 and endocrine therapy in multicellular tumor spheroid growth inhibition (SGI). To model the characteristics and cellular behavior of human tumors, the activity of PF-07220060 was evaluated in three dimensional MCTS models of HR+ breast cancer and AR+ prostate cancer following PF-07220060 treatment as a single agent and in combination with fulvestrant • 1) in HR+, HER2-T47D breast cancer spheroids. • 2) in HR+, HER2+BT474 breast cancer spheroids, • 3) in BT474 spheroids, and • 4) in AR+ prostate carcinoma cell line (LNCaP) prostate cancer spheroids. Spheroids were treated with increasing concentrations of 100, 300, or 1000 nM PF-07220060 and compared to palbociclib at the clinically relevant concentration of 30 nM.

CC(C)n1c(C(C)(C)O)nc2c(F)cc(-c3nc(N[C@@H]4CCOC[C@H]4O)ncc3Cl)cc21 [PF-07220060, 1,5-anhydro-3-({5-chloro-4-[4-fluoro-2-(2-hydroxypropan-2-yl)-1-(propan-2-yl)-1H-benzimidazol-6-yl]pyrimidin-2-yl}amino)-2,3-dideoxy-D-threo-pentitol]
Cmax ([1]; 300 mg BID oral + letrozole (Part 1B), C1D15 post multiple doses, geometric mean): 1520 ng/mL
Tmax ([1]; 300 mg BID oral + letrozole (Part 1B), C1D15 post multiple doses, median, read-out: Tmax): 1 h
Cmax ([1]; 300 mg, 300 mg BID oral monotherapy (Part 1A), C1D1 post first dose, geometric mean): 741 ng/mL
AUC ([1]; 300 mg, 300 mg BID oral monotherapy (Part 1A), C1D1 post first dose, geometric mean, read-out: AUC12): 4560 ng·h/mL
Tmax ([1]; 300 mg, 300 mg BID oral monotherapy (Part 1A), C1D1 post first dose, median, read-out: Tmax): 3.8 h
AUC ([1]; 300 mg, 300 mg BID oral monotherapy (Part 1A), C1D15, geometric mean, read-out: AUCtau): 8100 ng·h/mL
Cmax ([1]; 300 mg, 300 mg BID oral monotherapy (Part 1A), C1D15 post multiple doses, geometric mean): 1170 ng/mL
Tmax ([1]; 300 mg, 300 mg BID oral monotherapy (Part 1A), C1D15 post multiple doses, median, read-out: Tmax): 2.1 h
Cmax ([1]; 400 mg BID oral + fulvestrant (Part 1C), C1D1 post first dose, geometric mean): 730 ng/mL
AUC ([1]; 400 mg BID oral + fulvestrant (Part 1C), C1D1 post first dose, geometric mean, read-out: AUC12): 4840 ng·h/mL
Tmax ([1]; 400 mg BID oral + fulvestrant (Part 1C), C1D1 post first dose, median, read-out: Tmax): 2.2 h
half-life ([1]; 400 mg BID oral + fulvestrant (Part 1C), C1D15): 6.6 h
Cmax ([1]; 400 mg BID oral + letrozole (Part 1B), C1D1 post first dose, geometric mean): 950 ng/mL
AUC ([1]; 400 mg BID oral + letrozole (Part 1B), C1D1 post first dose, geometric mean, read-out: AUC12): 7110 ng·h/mL
Tmax ([1]; 400 mg BID oral + letrozole (Part 1B), C1D1 post first dose, median, read-out: Tmax): 2.2 h
AUC ([1]; 400 mg BID oral + letrozole (Part 1B), C1D15, geometric mean, read-out: AUCtau): 11500 ng·h/mL
Cmax ([1]; 400 mg BID oral + letrozole (Part 1B), C1D15 post multiple doses, geometric mean): 1420 ng/mL
Tmax ([1]; 400 mg BID oral + letrozole (Part 1B), C1D15 post multiple doses, median, read-out: Tmax): 1.6 h
AUC ([1]; 400 mg BID, 400 mg BID oral + fulvestrant (Part 1C), C1D15, geometric mean, read-out: AUCtau): 9560 ng·h/mL
Cmax ([1]; 400 mg BID, 400 mg BID oral + fulvestrant (Part 1C), C1D15 post multiple doses, geometric mean): 1380 ng/mL
Tmax ([1]; 400 mg BID, 400 mg BID oral + fulvestrant (Part 1C), C1D15 post multiple doses, median, read-out: Tmax): 1.1 h
Cmax ([1]; 400 mg, 400 mg BID oral monotherapy (Part 1A), C1D1 post first dose, geometric mean): 766 ng/mL
AUC ([1]; 400 mg, 400 mg BID oral monotherapy (Part 1A), C1D1 post first dose, geometric mean, read-out: AUC12): 5110 ng·h/mL
Tmax ([1]; 400 mg, 400 mg BID oral monotherapy (Part 1A), C1D1 post first dose, median, read-out: Tmax): 2.1 h
half-life ([1]; 400 mg, 400 mg BID oral monotherapy (Part 1A), C1D15, n = 2): 6.6 h
AUC ([1]; 400 mg, 400 mg BID oral monotherapy (Part 1A), C1D15, geometric mean, read-out: AUCtau): 8000 ng·h/mL
Cmax ([1]; 400 mg, 400 mg BID oral monotherapy (Part 1A), C1D15 post multiple doses, geometric mean): 949 ng/mL
Tmax ([1]; 400 mg, 400 mg BID oral monotherapy (Part 1A), C1D15 post multiple doses, median, read-out: Tmax): 1 h
Cmax ([1]; 500 mg, 500 mg BID oral monotherapy (Part 1A), C1D1 post first dose, geometric mean): 637 ng/mL
AUC ([1]; 500 mg, 500 mg BID oral monotherapy (Part 1A), C1D1 post first dose, geometric mean, read-out: AUC12): 4170 ng·h/mL
Tmax ([1]; 500 mg, 500 mg BID oral monotherapy (Part 1A), C1D1 post first dose, median, read-out: Tmax): 1.9 h
AUC ([1]; 500 mg, 500 mg BID oral monotherapy (Part 1A), C1D15, n = 1, read-out: AUCtau): 12500 ng·h/mL
Cmax ([1]; 500 mg, 500 mg BID oral monotherapy (Part 1A), C1D15 post multiple doses, geometric mean): 1760 ng/mL
Tmax ([1]; 500 mg, 500 mg BID oral monotherapy (Part 1A), C1D15 post multiple doses, median, read-out: Tmax): 4 h
Tmax ([1]; following oral dose administration, across cohorts (100 to 500 mg BID), read-out: median Tmax values): 1 to 4 h
concentration at 15 day ([1]; 100 mg BID oral monotherapy (Part 1A), C1D15, geometric mean, read-out: Cmin): 231 ng/mL
SGI ([2]; 100 nM single agent): 9%
SGI ([2]; 300 nM single agent): 16% and 26% and 20%
SGI ([2]; 1000 nM single agent): 52%
SGI ([3]; 100 nM single agent): 27%
SGI ([3]; 300 nM single agent): 38; 38%
SGI ([3]; 1000 nM single agent): 53%
